# Reference: the supplement of paper PMC6723410
# Tested on: GUMC-403
# Test: viability at highest tested concentration (max response) relative to DMSO (% of DMSO control); higher = less cytotoxic
# Conditions: library / dose series: MIPE library, 11-point 1:3 dilution; top concentration 23 µM; 48 h
# Method in brief: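 In 1536-well plates, 700 GUMC-403 papilloma cells per well, taken from a patient and grown by conditional reprogramming, were seeded in 5 μL F + Y medium and incubated overnight at 37 °C. Compounds were pinned in at 23 nL in an 11-point 1:3 series, and left for 48 h before CellTiter-Glo luminescence was read on a ViewLux against vehicle (100%) and empty (0%) wells. Reported values are viability at the highest tested concentration relative to vehicle control.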
row,SMILES,viability
1,N=C1N[C@H]2[C@H](CS[C@H]2CCCCC(=O)O)N1,134

# Same assay, conditions: library / dose series: MIPE library, 11-point 1:3 dilution; top concentration 46.1 µM; 48 h
row,SMILES,viability
1,NC/1=N/C(=O)N/C=C1F,104
2,CN(C)[C@@H](CCOc1cccc2ccccc12)c1ccccc1,92.3
3,CC(=O)O[C@H]1C[C@@H]2CC[C@@H]3[C@H](CC[C@@]4(C)[C@H]3C[C@H]([N+]3(C)CCCCC3)[C@@H]4OC(C)=O)[C@@]2(C)C[C@@H]1N1CCCCC1,130
4,c1ccc(-c2oc3ncnc(NC[C@@H]4CCCO4)c3c2-c2ccccc2)cc1,100
5,CCNC(=O)Nc1ccc2ncc(Nc3ccc(C)cc3)nc2n1,108
6,CCC(=O)O[C@@]1(CC[C@H]2[C@@H]3CCC/4=C/C(=O)CC[C@]4(C)[C@H]3CC[C@]12C)C(=O)CO,119
7,C[C@@H](Cc1cc2c(c(C(N)=O)c1)N(CCCO)CC2)NCCOc1ccccc1OCC(F)(F)F,112
8,NC(=O)c1nnn(Cc2cc(Cl)c(C(=O)c3ccc(Cl)cc3)c(Cl)c2)c1N,90.7
9,COc1ccc(COc2cc3oc(=O)c4cc(C(C)O)ccc4c3cc2OC)cc1 (centres undefined),86.3
10,C[C@@H](NCc1cc2ccccc2[nH]1)c1cccc2ccccc12,108
11,O=C([O-])Cc1ccccc1Nc1c(Cl)cccc1Cl,104
12,CO[C@@H]1[C@H](N(C)C(=O)c2ccccc2)C[C@H]2O[C@]1(C)n1c3ccccc3c3c4c(c5c6ccccc6n2c5c31)C(=O)NC4,66.2
13,C[C@H](O)[C@H]1[C@@H]2[C@H](C)C(=C(\N2C1=O)C(O)=O)/S[C@@H]3CN[C@H](CN[S+](N)([O-])=O)C3,120
14,NC[C@H](O)c1ccc(O)c(O)c1,113
15,C[S+](=O)([O-])c1ccc(C(=O)Nc2ccc(Cl)c(-c3ccccn3)c2)c(Cl)c1,100
16,CC[C@H](CC#N)OC(=O)N[C@@H](C)c1cccc(NC(=O)Nc2ccc(-c3cnco3)c(OC)c2)c1,124
17,CN1C(=O)COc2c(C(=O)NC3CN4CCC3CC4)cc(Cl)cc21 (centres undefined),107
18,CC1SC/2=C(C(O)=O)/C(=O)C3=CC(=C(C=C3N12)N4CCN(CC4)C\C5=C(C)\OC(=O)O5)F (centres undefined),112
19,NNc1nncc2ccccc12,117
20,Clc1ccc(C(Cn2ccnc2)OCc2ccc(Sc3ccccc3)cc2)c(Cl)c1 (centres undefined),118
21,Cn1cnc(N)c2ncnc1-2,82.9

row,SMILES,viability
1,CN(C)[C@H]\1[C@@H]2[C@@H](O)[C@@H]\3C(=C)C4=C(C(=CC=C4)O)C(=O)C3=C(\O)[C@@]2(O)C(=O)\C(=C1O)C(N)=O,96.5
2,CC1=NN(c2ccc(C)c(C)c2)C(=O)/C1=N/Nc1cccc(-c2cccc(C(=O)O)c2)c1O,101
3,O=C1c2c(O)cc(O)cc2OC(c2ccc(O)c(O)c2)C1O (centres undefined),116
4,CC[C@]12CC[C@H]3[C@@H](CCC/4=C/C(=O)CC[C@H]34)[C@@H]1\C=C/[C@@]2(O)C#C,130
5,N[S+](=O)([O-])c1cc2c(cc1Cl)NC(C(Cl)Cl)N[S+]2(=O)[O-] (centres undefined),98.6
6,COC\1=C(/OC)C(=O)\C(=C(C)/C1=O)CCCCCCCCCCO,112
7,Clc1ccc(C(Cn2ccnc2)OCc2ccsc2Cl)c(Cl)c1 (centres undefined),107
8,NC/1=N/C2=C([NH]C=N2)C(=S)N1,97.1
9,CC[C@H](NC(=O)[C@H](C)NC)C(=O)N1C[C@@H](O)C[C@H]1Cc1c(-c2[nH]c3cc(F)ccc3c2C[C@@H]2C[C@H](O)CN2C(=O)[C@H](CC)NC(=O)[C@H](C)NC)[nH]c2cc(F)ccc12,108
10,Fc1ccc(Cl)cc1-c1nc(Nc2ccncc2)c2nccnc2n1,128
11,N#C/C(=C\c1ccc(O)c(O)c1)C(=O)NCc1ccccc1,110
12,S=C1N\C=N/C2=C1[NH]C=N2,103
13,CC(=O)OC[C@@H]1O[C@H]([C@H](OC(C)=O)[C@@H]1OC(C)=O)N2\C=C/C(=O)NC2=O,110
14,CCNC(=O)C[C@H]1/N=C(/C2=CC=C(Cl)C=C2)C3=CC(=CC=C3[N]4C(=NN=C14)C)OC,93.5
15,COc1cc2nc(N3CCN(C(=O)c4ccco4)CC3)nc(N)c2cc1OC,23.4
16,CC1(C)S[C@H]2[C@H](NC(=O)[C@@H](N)C3=CC=C(O)C=C3)C(=O)[N@]2[C@H]1C(O)=O,124
17,C[C@H](NC(=O)[C@@H](O)c1cc(F)cc(F)c1)C(=O)N[C@@H]1C(=O)N(C)c2ccccc2-c2ccccc21,99
18,Cc1cc(/C=c2/sc3nc4ccccc4n3c2=O)c(C)n1-c1ccccc1,106
19,C[C@@H](CN1CC(=O)NC(=O)C1)N1CC(=O)NC(=O)C1,118
20,CCCOc1ccc2[nH]c(NC(=O)OC)nc2c1,108
21,Nc1nc(N)c(N=O)c(OCC2CCCCC2)n1,88.3

row,SMILES,viability
1,Cc1cc(C(C)(C)C)c(O)c(C)c1CC1=NCCN1,120
2,O=C1CCc2ccc(OCCCCN3CCN(c4cccc(Cl)c4Cl)CC3)cc2N1,99.5
3,COc1cc2nccc(Oc3ccc(NC(=O)C4(C(=O)Nc5ccc(F)cc5)CC4)cc3)c2cc1OC,63.3
4,CCCCN(CCCC)CCC(O)c1cc2c(Cl)cc(Cl)cc2c2cc(C(F)(F)F)ccc12 (centres undefined),107
5,Cc1cccc(-c2[nH]c(C(C)(C)C)nc2-c2ccc3c(c2)OCO3)n1,118
6,CC/C(=C(\c1ccccc1)c1ccc(OCCN(C)C)cc1)c1ccccc1,96
7,COc1cc[nH]c2ncc(C(=O)C(=O)N3CCN(C(=O)c4ccccc4)C[C@H]3C)c1-2,134
8,NC(=O)c1cccc(-c2cc(Nc3ccc(OC(F)(F)F)cc3)ncn2)c1,117
9,O=C(Nc1ccncc1)C(=O)c1cn(Cc2ccc(Cl)cc2)c2ccccc12,112
10,FC(F)(F)C1=CC=C2C(SCCCCCO\C3=C\O\C(CN4CCOCC4)=C/C3=O)=CC=NC2=C1,110
11,FC(F)(F)c1ccc(Nc2nc3cc(Oc4ccnc(-c5ncc(C(F)(F)F)[nH]5)c4)ccc3[nH]2)cc1,97.7
12,CC1(C)C(=O)N(CCN2CCC(C(=O)c3ccc(F)cc3)CC2)c2ccccc21,71.3
13,CC(C)(C)c1cc(NC(=O)Nc2ccc(-c3cn4c(n3)sc3cc(OCCN5CCOCC5)ccc34)cc2)no1,121
14,CC[C@H](CO)Nc1nc(NCc2ccccc2)c2ncn(C(C)C)c2n1,42.6
15,CC(C)OC(=O)/C1=C/N(CC(C)(C)C2=C1[NH]C3=CC=CC=C23)C(=O)C4=CC=C(F)C(=C4)F,107
16,CC(=O)N1CCN(c2ccc(OC[C@H]3CO[C@](Cn4ccnc4)(c4ccc(Cl)cc4Cl)O3)cc2)CC1,104
17,O=C(NCc1ccccc1)c1csc(Nc2ccncn2)n1,110
18,Oc1ccc(C2CNCCc3c2cc(O)c(O)c3Cl)cc1 (centres undefined),120
19,Nc1nc(F)nc2c1ncn2[C@@H]1O[C@H](COP(=O)(O)O)[C@@H](O)[C@@H]1O,101
20,C=C1C(=O)[C@@]23C(CC[C@@H]1[C@H]2O)[C@@]12CO[C@]3(O)[C@@H](O)[C@@H]1C(C)(C)CC[C@@H]2O (some centres undefined),119
21,OC[C@H]1O[C@H]([C@@H](F)[C@@H]1O)N2\C=C/C(=O)NC2=O,116
